According to US10442788B2, “Hepatitis B antiviral agents” (ENANTA PHARMACEUTICALS, INC., priority 2015, dated 2019):

Experiments:
[1] = Compound toxicity, ATPLite total ATP levels; type: cell-based; conditions: human, HepAD38 cells; 15,000 cells/well, three days after compound addition; 50% reduction of total ATP levels relative to no drug controls
Procedure: Methods: HepAD38 cells are maintained as previously reported (Ladner et al, Antimicrob. Agents Chemother. 1997, […], 1715). Briefly, cells are passaged upon attaining confluency in DMEM/F12 media in the presence of 10% FBS, Penn/Strep, 250 μg/mL G418, and 1 ug/ml tetracycline. Novel compounds are screened by first washing cells three times with PBS to remove tetracycline, and plating in 96 well plates at 35,000 cells/well. Compounds dissolved in DMSO are then diluted 1:200 into wells containing cells. Five days after compound addition, material is harvested for analysis. For an extended 8 day analysis, cells are plated and treated as described above, but media and compound are refreshed on d2 and d5 post initial treatment.
Compound toxicity is evaluated by seeding cells at 15,000 cells/well and treating with compound as described above. Three days after compound addition, cells are treated with ATPLite reagent and compound concentrations that reduce total ATP levels in wells by 50% relative to no drug controls (CC50) are reported; CC50 ranges are as follows: A>30 μM; B 10-30 μM; C<10 μM.

[2] = test system: HBV; experiment: HepAD38 antiviral assay: reduction of viral product accumulation (virion DNA by qPCR, HBsAg or HBeAg by ELISA); type: cell-based; conditions: Hepatitis B virus, 120 h; HepAD38 cells, five days after compound addition; 50% reduction of viral product accumulation relative to no drug controls; read-out: HepAD38 EC50
How it was run: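 Tetracycline-washed HepAD38 cells treated with compound (DMSO diluted 1:200) for 5 days, or 8 days with media and compound refreshed on d2 and d5. Virion DNA from lysates quantified by qPCR; HBsAg or HBeAg by ELISA. EC50 is the concentration giving 50% reduction versus no-drug controls, reported as ranges A<1 μM, B 1-10 μM, C>10 μM.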

COC(=O)CN(C)S(=O)(=O)c1cc(-c2nc(-c3ccc(Br)c(F)c3)c[nH]2)ccc1Cl [Example 126]
CC50 at 3 days [1]: > 30 µM | EC50 [2]: > 10 µM

Cc1cc(-c2cnc(-c3ccc(Cl)c(S(=O)(=O)N4CCC(O)CC4)c3)[nH]2)ccc1F [Example 45]
CC50 at 3 days [1]: > 30 µM | EC50 [2]: < 1 µM

CCOC(=O)NCCCNS(=O)(=O)c1cc(-c2nc(-c3ccc(Br)c(F)c3)c[nH]2)ccc1Cl [Example 147]
CC50 at 3 days [1]: > 30 µM | EC50 [2]: < 1 µM

O=S(=O)(c1ccc2[nH]c(-c3ccccc3)nc2c1)N1CCC(O)CC1 [Example 15]
CC50 at 3 days [1]: > 30 µM | EC50 [2]: > 10 µM

O=S(=O)(c1cc(-c2nc(-c3ccc(Br)c(F)c3)c[nH]2)ccc1Cl)N1CCC(F)CC1 [Example 123]
CC50 at 3 days [1]: > 30 µM | EC50 [2]: < 1 µM

COC(=O)NCC(C)NS(=O)(=O)c1cc(-c2nc(-c3ccc(Br)c(F)c3)c[nH]2)ccc1Cl (stereo not shown) [Example 120]
CC50 at 3 days [1]: < 10 µM | EC50 [2]: < 1 µM

N#Cc1cc(-c2cc(-c3ccc(Cl)c(S(=O)(=O)N4CCC(O)CC4)c3)n[nH]2)ccc1F [Example 27]
CC50 at 3 days [1]: > 30 µM | EC50 [2]: 1 to 10 µM

O=S(=O)(c1cc(-c2nc(-c3ccccc3C3CC3)c[nH]2)ccc1Cl)N1CCC(O)CC1 [Example 122]
CC50 at 3 days [1]: > 30 µM | EC50 [2]: > 10 µM

O=S(=O)(c1cc(-c2nc3cc(F)c(F)cc3[nH]2)ccc1Cl)N1CCC(O)CC1 [Example 10]
CC50 at 3 days [1]: > 30 µM | EC50 [2]: 1 to 10 µM

O=C1CCN(S(=O)(=O)c2cc(-c3nc(-c4ccc(Br)c(F)c4)c[nH]3)ccc2Cl)CC1 [Example 59]
CC50 at 3 days [1]: 10 to 30 µM | EC50 [2]: < 1 µM

O=S(=O)(c1cc(-c2nc(-c3ccc(Br)c(F)c3)c[nH]2)ccc1Cl)N1CCN(c2ccccn2)CC1 [Example 130]
CC50 at 3 days [1]: > 30 µM | EC50 [2]: < 1 µM

O=S(=O)(c1cc(-c2nc(-c3ccc(Cl)cc3)c[nH]2)ccc1Cl)N1CCC(O)CC1 [Example 52]
CC50 at 3 days [1]: 10 to 30 µM | EC50 [2]: < 1 µM

O=S(=O)(c1cc(-c2nc(-c3ccc(Br)c(F)c3)c[nH]2)ccc1Cl)N1CCCC1CO (stereo not shown) [Example 107]
CC50 at 3 days [1]: > 30 µM | EC50 [2]: < 1 µM

O=S(=O)(NCCO)c1cc(-c2ncc(-c3ccc(F)c(Br)c3)[nH]2)ccc1Cl [Example 38]
CC50 at 3 days [1]: 10 to 30 µM | EC50 [2]: < 1 µM

O=S(=O)(c1cc(-c2nc(-c3ccc(Br)c(Cl)c3)c[nH]2)ccc1Cl)N1CCC(O)CC1 [Example 82]
CC50 at 3 days [1]: < 10 µM | EC50 [2]: < 1 µM

O=S(=O)(NCCO)c1cc(-c2nc(-c3ccc(Br)c(F)c3)c[nH]2)ccc1Cl [Example 115]
CC50 at 3 days [1]: > 30 µM | EC50 [2]: < 1 µM

CN(C)S(=O)(=O)c1cc(-c2ncc(-c3ccc(F)c(Br)c3)[nH]2)ccc1Cl [Example 57]
CC50 at 3 days [1]: 10 to 30 µM | EC50 [2]: 1 to 10 µM

O=S(=O)(c1cc(-c2nc(-c3ccc(Cl)c(F)c3)c[nH]2)ccc1Cl)N1CCC(O)CC1 [Example 72]
CC50 at 3 days [1]: 10 to 30 µM | EC50 [2]: < 1 µM

O=S(=O)(c1cc(-c2nc(-c3ccsc3)c[nH]2)ccc1Cl)N1CCC(O)CC1 [Example 69]
CC50 at 3 days [1]: > 30 µM | EC50 [2]: 1 to 10 µM

O=S(=O)(c1cc(-c2nc(-c3ccc(Cl)c(Br)c3)c[nH]2)ccc1Cl)N1CCC(O)CC1 [Example 87]
CC50 at 3 days [1]: < 10 µM | EC50 [2]: < 1 µM

O=S(=O)(c1cc(-c2ncc(-c3ccc(F)c(Br)c3)[nH]2)ccc1Cl)N1CCC(F)CC1 [Example 44]
CC50 at 3 days [1]: < 10 µM | EC50 [2]: < 1 µM

O=S(=O)(c1cc(-c2nc(-c3ccc(Br)c(F)c3)c[nH]2)ccc1Cl)N1CCC(O)CC1 [Example 18]
CC50 at 3 days [1]: 10 to 30 µM | EC50 [2]: < 1 µM

Cc1cc(-c2cc(-c3ccc(Cl)c(S(=O)(=O)N4CCC(O)CC4)c3)n[nH]2)ccc1F [Example 25]
CC50 at 3 days [1]: 10 to 30 µM | EC50 [2]: 1 to 10 µM

CN(C1CCCCC1)S(=O)(=O)c1cc(-c2nc(-c3ccc(Br)c(F)c3)c[nH]2)ccc1Cl [Example 113]
CC50 at 3 days [1]: < 10 µM | EC50 [2]: < 1 µM

COc1cc(-c2cnc(-c3ccc(Cl)c(S(=O)(=O)N4CCC(O)CC4)c3)[nH]2)ccc1F [Example 46]
CC50 at 3 days [1]: > 30 µM | EC50 [2]: < 1 µM

CC1(O)CCN(S(=O)(=O)c2cc(-c3ncc(-c4ccc(F)c(Br)c4)[nH]3)ccc2Cl)CC1 [Example 32]
CC50 at 3 days [1]: 10 to 30 µM | EC50 [2]: 1 to 10 µM

O=S(=O)(c1cc(-c2nc(-c3ccc(Cl)c(Cl)c3)c[nH]2)ccc1Cl)N1CCC(O)CC1 [Example 71]
CC50 at 3 days [1]: 10 to 30 µM | EC50 [2]: < 1 µM

O=S(=O)(c1cc(-c2ncc(-c3ccc(F)c(C4CC4)c3)[nH]2)ccc1Cl)N1CCC(O)CC1 [Example 48]
CC50 at 3 days [1]: 10 to 30 µM | EC50 [2]: < 1 µM

C#Cc1cc(-c2cc(-c3ccc(Cl)c(S(=O)(=O)N4CCC(O)CC4)c3)n[nH]2)ccc1F [Example 28]
CC50 at 3 days [1]: < 10 µM | EC50 [2]: < 1 µM

O=S(=O)(c1cc(-c2nc3ccccc3[nH]2)ccc1Cl)N1CCC(O)CC1 [Example 9]
CC50 at 3 days [1]: 10 to 30 µM | EC50 [2]: > 10 µM

CC(CO)N(C)S(=O)(=O)c1cc(-c2nc(-c3ccc(Br)c(F)c3)c[nH]2)ccc1Cl (stereo not shown) [Example 129]
CC50 at 3 days [1]: < 10 µM | EC50 [2]: < 1 µM

COC(=O)CNS(=O)(=O)c1cc(-c2nc(-c3ccc(Br)c(F)c3)c[nH]2)ccc1Cl [Example 125]
CC50 at 3 days [1]: > 30 µM | EC50 [2]: > 10 µM

CC(C)(C)OC(=O)N1CCN(S(=O)(=O)c2cc(-c3nc(-c4ccc(Br)c(F)c4)c[nH]3)ccc2Cl)CC1 [Example 142]
CC50 at 3 days [1]: < 10 µM | EC50 [2]: 1 to 10 µM

O=S(=O)(c1cc(-c2ncc(-c3ccc(F)c(F)c3)[nH]2)ccc1Cl)N1CCC(O)CC1 [Example 12]
CC50 at 3 days [1]: > 30 µM | EC50 [2]: < 1 µM

O=C1CN(S(=O)(=O)c2cc(-c3ncc(-c4ccc(F)c(Br)c4)[nH]3)ccc2Cl)CCN1 [Example 64]
CC50 at 3 days [1]: 10 to 30 µM | EC50 [2]: 1 to 10 µM

CC(CO)NS(=O)(=O)c1cc(-c2nc(-c3ccc(Br)c(F)c3)c[nH]2)ccc1Cl (stereo not shown) [Example 127]
CC50 at 3 days [1]: > 30 µM | EC50 [2]: < 1 µM

O=S(=O)(c1c(Cl)ccc2c(-c3ccccc3)n[nH]c12)N1CCC(O)CC1 [Example 4]
CC50 at 3 days [1]: > 30 µM | EC50 [2]: > 10 µM

N#Cc1cc(-c2c[nH]c(-c3ccc(Cl)c(S(=O)(=O)N4CCC(O)CC4)c3)n2)ccc1Cl [Example 148]
CC50 at 3 days [1]: > 30 µM | EC50 [2]: < 1 µM

O=S(=O)(c1cc(-c2nc(-c3ccc(F)cc3)c[nH]2)ccc1Cl)N1CCC(O)CC1 [Example 40]
CC50 at 3 days [1]: > 30 µM | EC50 [2]: 1 to 10 µM

O=S(=O)(c1cc(-c2nc(-c3ccc4[nH]ccc4c3)c[nH]2)ccc1Cl)N1CCC(O)CC1 [Example 103]
CC50 at 3 days [1]: > 30 µM | EC50 [2]: < 1 µM

O=S(=O)(c1cc(-c2nc(-c3ccc(C(F)(F)F)c(F)c3)c[nH]2)ccc1Cl)N1CCC(O)CC1 [Example 83]
CC50 at 3 days [1]: < 10 µM | EC50 [2]: < 1 µM

COC(=O)N1CCN(S(=O)(=O)c2cc(-c3nc(-c4ccc(Br)c(F)c4)c[nH]3)ccc2Cl)CC1 [Example 143]
CC50 at 3 days [1]: > 30 µM | EC50 [2]: < 1 µM

O=S(=O)(c1cc(-c2nnc(-c3ccc(F)c(F)c3)[nH]2)ccc1Cl)N1CCC(O)CC1 [Example 23]
CC50 at 3 days [1]: 10 to 30 µM | EC50 [2]: 1 to 10 µM

COC(=O)NCCCNS(=O)(=O)c1cc(-c2ncc(-c3ccc(F)c(Br)c3)n2C(=O)OC)ccc1Cl [Example 63]
CC50 at 3 days [1]: 10 to 30 µM | EC50 [2]: 1 to 10 µM

COc1cccc(-c2c[nH]c(-c3ccc(Cl)c(S(=O)(=O)N4CCC(O)CC4)c3)n2)c1 [Example 93]
CC50 at 3 days [1]: > 30 µM | EC50 [2]: > 10 µM

O=S(=O)(c1cc(-c2nc(-c3ccc(Br)c(F)c3)c[nH]2)ccc1Cl)N1CCCCC(O)C1 (stereo not shown) [Example 132]
CC50 at 3 days [1]: > 30 µM | EC50 [2]: < 1 µM

O=S(=O)(c1cc(-c2nc(-c3ccc(Br)c(F)c3)c[nH]2)ccc1Cl)N1CCC(O)C(F)C1 (stereo not shown) [Example 114]
CC50 at 3 days [1]: > 30 µM | EC50 [2]: < 1 µM
